{"source": "patent EP3441475A1", "about": "“NEUTRAL HEAT-SENSITIVE SERINE PROTEASE DERIVED FROM O. CORVINA” (priority 2017, dated 2019)", "target": "T1, NHSSP (Onygena corvina, UniProt A0A0B4VM82)", "T1 sequence (A0A0B4VM82 113-391)": "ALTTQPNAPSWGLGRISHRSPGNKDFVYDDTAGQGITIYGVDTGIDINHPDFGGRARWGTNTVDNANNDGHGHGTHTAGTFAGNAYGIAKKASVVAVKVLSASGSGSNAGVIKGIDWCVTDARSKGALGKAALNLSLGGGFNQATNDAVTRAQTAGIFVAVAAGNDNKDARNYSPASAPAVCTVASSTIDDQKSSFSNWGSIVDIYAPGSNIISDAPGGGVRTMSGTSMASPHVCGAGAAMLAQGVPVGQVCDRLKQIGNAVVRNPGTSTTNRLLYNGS", "assay": "biochemical", "format": "biochemical", "protocol": "The influence of different inhibitors on the enzymatic activity of NHSSP was determined by hydrolysis of azocasein in Britton-Robinson buffer pH 6.5 supplemented with appropriate substances. The reaction was stopped by the addition of TCA to the final concentration of 293 mM, centrifuged as described above, and the absorbance of supernatants was measured at 450 nm.\nThe enzymatic reaction was carried out at 40°C with a final inhibitor concentration of 1 mM.", "key": {"[1]": {"conditions": "final inhibitor concentration of 1 mM, 40°C, pH 6.5"}, "[2]": {"conditions": "remaining NHSSP activity, final inhibitor concentration of 1 mM, 40°C, Britton-Robinson buffer pH 6.5, read-out: Activity (%)"}}, "note": "Like-named read-outs stand apart in the source and are kept apart here.", "data": [{"smiles": "O=S(=O)(F)Cc1ccccc1", "note": "[PMSF, phenylmethylsulfonyl fluoride]", "values": [{"measurement": "inhibition of NHSSP protease activity (in words)", "setting": "[1]", "result": "identified as an inhibitor of NHSSP"}, {"measurement": "Activity (%)", "setting": "remaining NHSSP activity, final inhibitor concentration of 1 mM, 40°C, Britton-Robinson buffer pH 6.5", "result": 40, "unit": "%"}]}, {"smiles": "O=C(O)CN(CCN(CC(=O)O)CC(=O)O)CC(=O)O", "note": "[EDTA, ethylenediamine tetraacetate]", "values": [{"measurement": "activity at 1000 µM", "setting": "pH 6.5", "result": 100, "unit": "%"}, {"measurement": "inhibition of NHSSP protease activity (in words)", "setting": "pH 6.5", "result": "did not significantly inhibit protease activity"}]}, {"smiles": "OCCS", "note": "[2-ß ME, ß-mercaptoethanol]", "values": [{"measurement": "inhibition of NHSSP protease activity (in words)", "setting": "[1]", "result": "did not significantly inhibit protease activity"}, {"measurement": "activity at 1000 µM", "setting": "[2]", "result": 99, "unit": "%"}]}, {"smiles": "O=C(O)CCP(CCC(=O)O)CCC(=O)O", "note": "[TCEP]", "values": [{"measurement": "inhibition of NHSSP protease activity (in words)", "setting": "[1]", "result": "did not significantly inhibit protease activity"}, {"measurement": "activity at 1000 µM", "setting": "[2]", "result": 97, "unit": "%"}]}]}
